According to patent US20250179056A1, “NOVEL SULFATE SALT FORMS OF ISOCHROMAN-IMIDAZOLE STRUCTURED ALPHA-2A ADRENOCEPTOR AGONIST” (ORION CORPORATION, priority 2022, published 2025):
Entries after “also recorded” stand apart in the source; their conditions may differ.

Assay: Slurry experiments (SLC, SL, SLT) started with crystalline form 1; wet powders analyzed by XRPD
Type: physicochemical
Settings: for Resulting crystalline form SLC: aged at 5° C. under magnetic stirring; for Resulting crystalline form SLT: aged at 40° C. in shaker at 700 rpm; for Resulting crystalline form SL: aged at room temperature under magnetic stirring
Experimental: The slurry experiments (SLC, SL and SLT) were carried out with the crystalline form 1 in different conditions. 15 mg of starting material were mixed with 200 μl of solvent or solvent mixture (at a concentration of about 75 mg/ml). The mixture was homogenized by vortexing for 10 seconds. The resulting suspensions were aged at different conditions: a) at 5° C. under magnetic stirring (SLC), b) at room temperature under magnetic stirring (SL), and c) at 40° C. in the shaker at 700 rpm (SLT). During the aging time, the samples were checked regularly, and solvent was added if needed. After completing the aging time, the vials were opened, and the (wet) powders were analyzed by XRPD.

[1] = slurry in 2-Butanone, about 75 mg/ml
[2] = slurry in 2-Ethoxy ethanol, about 75 mg/ml
[3] = slurry in 2-Methyltetrahydrofuran, about 75 mg/ml
[4] = slurry in Acetone/Water (86:14 vol %), water activity 0.75, about 75 mg/ml
[5] = slurry in Acetonitrile/Water (96:4 vol %), water activity 0.60, about 75 mg/ml
[6] = slurry in Ethanol, about 75 mg/ml
[7] = slurry in Ethanol/Water (26:74 vol %), water activity >0.9, about 75 mg/ml
[8] = slurry in Methanol/Water (20:80 vol %), water activity >0.9, about 75 mg/ml
[9] = slurry in THF/Water (90:10 vol %), water activity 0.88, about 75 mg/ml
[10] = slurry in Water (water activity 1), about 75 mg/ml

COc1cccc2c1CCOC2C1=NCCN1.O=S(=O)(O)O (stereo not shown) [Form 1, 2-(5-methoxyisochroman-1-yl)-4,5-dihydro-1H-imidazole sulfate crystalline form 1]
Resulting crystalline form SLC [1]: Form 1
Resulting crystalline form SLT [1]: Form 1
Resulting crystalline form SL [1]: Form 1
Resulting crystalline form SLT [2]: Form 4
Resulting crystalline form SL [2]: Form 4
Resulting crystalline form SLC [3]: Form 1
Resulting crystalline form SLT [3]: Form 1
Resulting crystalline form SL [3]: Form 1
Resulting crystalline form SLC [4]: Form 1
Resulting crystalline form SLT [4]: Form 1
Resulting crystalline form SL [4]: Form 1
Resulting crystalline form SLC [5]: Form 1
Resulting crystalline form SLT [5]: Form 1
Resulting crystalline form SL [5]: Form 1
Resulting crystalline form SLC [6]: Form 1
Resulting crystalline form SLT [6]: Form 1
Resulting crystalline form SL [6]: Form 1
Resulting crystalline form SLC [7]: Form 2; also recorded: (+Form 1)
Resulting crystalline form SLT [7]: Form 2
Resulting crystalline form SL [7]: Form 2
Resulting crystalline form SLC [8]: Form 2
Resulting crystalline form SLT [8]: Form 2
Resulting crystalline form SL [8]: Form 2
Resulting crystalline form SLC [9]: Form 1
Resulting crystalline form SLT [9]: Form 1
Resulting crystalline form SLC [10]: Form 2
Resulting crystalline form SLT [10]: Form 2
Resulting crystalline form SL [10]: Form 2
